The record followed here is patent publication US20260137698A1, “CYCLIN-DEPENDENT KINASE 7 INHIBITORS” (JOINT STOCK COMPANY «BIOCAD», priority 2022, published 2026).

Data set [1] is described as follows: Passive membrane permeability through PAMPA artificial membrane, pH 7.4. Type of data set: in vitro ADME. As to conditions: pH 7.4, 10 μmol, 20 hours at room temperature, mean of multiple measurements, read-out: PAMPA passive permeability Pe. The method in brief: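 Compound at 10 μmol in 0.01 M phosphate buffer pH 7.4 placed in donor wells over lecithin-phospholipid-impregnated PVDF filter, buffer in acceptor; 20 h at room temperature. Donor and acceptor levels measured by RP-HPLC-UV; Pe (cm/s) and membrane retention R (%) calculated.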

The target of the next data set is CDK13/Cyclin K (Homo sapiens, UniProt Q14004). As to the kind of experiment: Inhibition of CDK13/Cyclin K kinase activity (ADP-Glo). In kind it is biochemical. How it is done: Measurements were carried out in a 5 μl reaction volume using a 384-well plate (Corning Inc., order no. 4513). The analyzed substances were titrated from 50 μM in increments of 4 at 11 concentration points in a normal strength kinase buffer A (Thermo Fisher Scientific Inc, cat. no. PV3189) supplemented with DTT (Sigma, orde. no. 646563-10X.5ML) and prepared with water (Panreac, order no. 701074). Kinase was diluted in an analogous buffer, mixed with test compounds in plate wells and preincubated for 10 minutes at 25° C. Following incubation, a mixture of reaction substrate (CDKtide (SignalChem, order no. C06-58) or Histone H1 (SignalChem, order no. H10-54N) or PDKtide (SignalChem, order no. P10-58) and ATP (SignalChem, order no. V915B) prepared on a normal strength kinase buffer A was added. 1% solution of dimethyl sulfoxide (DMSO) (Sigma-Aldrich, order no. D2438) in the reaction volume was used as a negative control. The final concentrations of all reaction components are shown in Table 5. The plate was centrifuged at 400 rcf (Eppendorf, 5804 R) for 1 minute and incubated for 40-60 minutes at 25° C. The amount of ATP consumed in the kinase reaction was then measured using the ADP-Glo™ detection system. Luminescence signal was measured using Spark 20M tablet multifunction reader (Tecan Group Ltd, Switzerland). IC50 value was calculated using Magellan 7.2 (Tecan Group Ltd, Switzerland) by approximating experimental points by four-parameter model with the optimization by Levenberg-Marquardt:
[formula] • where A is the upper asymptote; D is the lower asymptote; C is IC50, half-maximal inhibitory concentration of kinase, nM; B is the curvature (slope).
A general note: In ADP-Glo the light output rises with the ADP produced.

Data set [2] can be described thus: Microsomal stability in mouse liver microsomes (MLM). Type of data set: in vitro ADME. The following applies: mouse liver microsomes 0.5 mg/ml, 1 μM compound, NADPH. How it is done:
(§1) The procedure for investigating the metabolism of selected compounds was carried out in microsomal fractions of the liver (of rats, mice, humans) in the presence of a phase I metabolism cofactor (NADPH).
(§2) The rate of enzymatic decomposition of the compound in liver microsomes in in vitro analysis was determined by keeping a reaction mixture comprising 0.5 mg/ml of pooled human, rat or mouse liver microsomes, 1 μM test compound, 1.5 mM […] (Carbosynth, UK, cat. no. NN108711101) and 1.5 mM magnesium chloride in 0.1 M sodium phosphate buffer (pH 7.4) in a solid-state thermostat at 37° C. (XenoTech, USA, order no. H2610, cat. no. R1000, cat. no. M1000). Incubation was carried out in three replicates.
(§3) To determine the stability of compounds under sample preparation conditions, an aliquot in two replicates with the test compound and a microsomal fraction devoid of the NADPH cofactor, which was incubated for 40 minutes at 37° C.
(§4) Reactions were stopped at 0, 10, 20, 30 and 40 min time points by way of adding an ice mixture of acetonitrile:methanol (3:1) comprising an internal standard.
(§5) Samples were then centrifuged to remove the precipitated protein, supernatants were analyzed using HPLC-MS/MS to determine in vitro clearance (CLint) of the compounds. The Agilent 6410 mass spectrometer (Agilent, USA) combined with the Agilent 1260 Infinity II HPLC liquid chromatograph (Agilent, USA) and a cooling autosampler controlled by MassHunter software (Agilent, USA) was used as an HPLC-MS/MS system. Chromatographic analysis was performed on a C18 reversed-phase HPLC column (Agilent, Waters or equivalent) in a gradient elution mode in a system of mobile phases: 0.1% formic acid in water/0.1% formic acid in acetonitrile, flow rate: 0.5 ml/min, column T=35° C. Mass spectrometric detection was performed with electrospray ionization in multiple reaction monitoring mode. Precursor ions, fragment ions and collision energies for each substance were selected experimentally.
(§6) A graph of dependence of the logarithmic ratio between substance's peak area and internal standard's peak area vs time was built. The dependent coefficient of this line corresponded to the elimination rate constant k, on the basis of which the in vitro clearance CLint was calculated:
(§7) Based on resulting in vitro clearance CLint values, the microsomal stability of the selected compounds for humans, rats and mice was concluded.

The nature of data set [3]: Microsomal stability in rat liver microsomes (RLM). As to conditions: rat liver microsomes 0.5 mg/ml, 1 μM compound, NADPH. In kind it is in vitro ADME. As for the experimental part:
as §1, §2, §3, §4, §5, §6, §7
(Liver microsomes are vesicles of endoplasmic reticulum, rich in cytochrome P450 enzymes.)

Setting [4] is: mean of multiple measurement series, ATP 10 μM, read-out: CDK13/Cyclin K IC50.
The mark [5] stands for this setting: mean value from several measurements, read-out: IC50 CDK13/Cyclin K.

Molecules are shown by their SMILES. Like-named read-outs stand apart in the source and are kept apart here.

Sequence of CDK13/Cyclin K (Q14004 whole entry): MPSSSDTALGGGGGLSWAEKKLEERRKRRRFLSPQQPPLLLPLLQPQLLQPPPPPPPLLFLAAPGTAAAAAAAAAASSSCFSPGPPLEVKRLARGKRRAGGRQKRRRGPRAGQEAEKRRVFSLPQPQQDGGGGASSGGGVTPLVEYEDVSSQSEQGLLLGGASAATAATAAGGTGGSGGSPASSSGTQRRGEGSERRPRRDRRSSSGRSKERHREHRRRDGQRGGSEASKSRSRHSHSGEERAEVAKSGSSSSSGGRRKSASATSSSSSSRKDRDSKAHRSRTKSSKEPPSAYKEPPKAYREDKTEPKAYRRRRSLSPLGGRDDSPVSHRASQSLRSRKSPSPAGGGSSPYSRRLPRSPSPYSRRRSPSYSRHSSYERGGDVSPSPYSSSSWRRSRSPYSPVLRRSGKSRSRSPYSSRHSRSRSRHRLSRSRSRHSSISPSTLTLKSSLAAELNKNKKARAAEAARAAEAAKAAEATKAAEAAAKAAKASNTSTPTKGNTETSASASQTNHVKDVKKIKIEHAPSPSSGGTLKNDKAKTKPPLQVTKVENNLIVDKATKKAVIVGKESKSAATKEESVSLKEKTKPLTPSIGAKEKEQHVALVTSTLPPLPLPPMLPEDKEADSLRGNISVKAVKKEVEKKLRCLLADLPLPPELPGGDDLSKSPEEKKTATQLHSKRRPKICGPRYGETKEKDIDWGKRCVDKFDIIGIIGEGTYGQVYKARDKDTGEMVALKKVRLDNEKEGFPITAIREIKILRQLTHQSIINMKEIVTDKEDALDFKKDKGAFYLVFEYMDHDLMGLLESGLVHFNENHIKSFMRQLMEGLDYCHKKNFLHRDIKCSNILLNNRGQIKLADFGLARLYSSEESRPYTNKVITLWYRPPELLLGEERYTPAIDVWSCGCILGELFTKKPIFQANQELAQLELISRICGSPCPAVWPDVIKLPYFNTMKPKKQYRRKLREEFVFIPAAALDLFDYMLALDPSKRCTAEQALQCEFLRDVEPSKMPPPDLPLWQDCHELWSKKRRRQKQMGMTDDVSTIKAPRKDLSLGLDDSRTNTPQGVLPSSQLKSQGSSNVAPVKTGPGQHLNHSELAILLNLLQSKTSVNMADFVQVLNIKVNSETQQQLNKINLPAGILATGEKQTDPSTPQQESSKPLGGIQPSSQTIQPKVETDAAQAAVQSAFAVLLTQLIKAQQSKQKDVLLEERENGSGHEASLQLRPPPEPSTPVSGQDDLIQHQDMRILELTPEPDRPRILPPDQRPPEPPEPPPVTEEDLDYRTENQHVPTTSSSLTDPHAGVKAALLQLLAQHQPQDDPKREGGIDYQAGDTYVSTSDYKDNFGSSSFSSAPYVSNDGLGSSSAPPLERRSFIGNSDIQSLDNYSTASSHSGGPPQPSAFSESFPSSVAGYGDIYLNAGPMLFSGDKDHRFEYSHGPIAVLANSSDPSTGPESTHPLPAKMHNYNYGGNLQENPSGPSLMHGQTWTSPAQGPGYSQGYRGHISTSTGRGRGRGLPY
Sequence of CDK13/Cyclin K (O75909 whole entry partner): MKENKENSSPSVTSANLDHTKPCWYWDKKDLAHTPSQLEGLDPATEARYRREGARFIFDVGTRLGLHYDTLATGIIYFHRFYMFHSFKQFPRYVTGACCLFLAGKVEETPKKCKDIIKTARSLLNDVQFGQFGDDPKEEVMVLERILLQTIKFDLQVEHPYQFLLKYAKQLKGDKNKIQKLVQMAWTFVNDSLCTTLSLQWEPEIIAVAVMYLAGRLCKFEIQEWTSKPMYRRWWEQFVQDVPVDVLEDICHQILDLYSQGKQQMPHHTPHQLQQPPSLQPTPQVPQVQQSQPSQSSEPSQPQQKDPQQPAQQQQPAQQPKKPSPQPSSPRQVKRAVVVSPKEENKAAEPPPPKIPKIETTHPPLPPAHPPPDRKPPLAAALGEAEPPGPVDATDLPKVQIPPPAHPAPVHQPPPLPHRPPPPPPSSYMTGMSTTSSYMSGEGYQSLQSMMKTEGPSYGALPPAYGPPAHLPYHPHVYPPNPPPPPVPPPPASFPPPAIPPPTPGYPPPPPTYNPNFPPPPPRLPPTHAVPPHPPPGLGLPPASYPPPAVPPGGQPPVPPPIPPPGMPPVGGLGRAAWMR

With `CN1CCCc2c(-c3nc(N[C@H]4CCC(C)(C)NC4)ncc3C(F)(F)F)c[nH]c2C1=O` [CDK7_1187, 3-(2-{[(3S)-6,6-dimethylpiperidin-3-yl]amino}-5-(trifluoromethyl)py-rimidin-4-yl)-7-methyl-1H,4H,5H,6H,7H, 8H-pyrrolo[2,3-c]azepin-8-one], in data set [1], the Papp at 20 h, 10 μmol fell in the range of 1 to 5 ×10⁻⁶ cm/s. The IC50 is 81 nM on CDK13/Cyclin K (setting [4]) and 50 to 200 nM at CDK13/Cyclin K (setting [5]). Further, in data set [2], the “MLM Clint” value is given as “A (Clint < 20 μl/(min · mg of protein))”. The “RLM Clint” value in data set [3] is listed as “A (Clint < 20 μl/(min · mg of protein))”.

For `Cn1cc(N2CCCc3c(-c4nc(N[C@H]5CCCNC5)ncc4C(F)(F)F)c[nH]c3C2=O)cn1` [CDK7_955, 7-(1-methyl-1H-pyrazol-4-yl)-3-(2-{[(3S)-piperidin-3-yl]amino}-5-(trifluoromethyl)py-rimidin-4-yl)-1H,4H,5H,6H,7H, 8H-pyrrolo[2,3-c]azepin-8-one], the Papp at 20 h, 10 μmol in data set [1] is < 1 ×10⁻⁶ cm/s.

As for `O=C1c2[nH]cc(-c3nc(NC4CCCNC4)ncc3C(F)(F)F)c2CCCN1C1CC1` (stereo not drawn) [CDK7_1188], the Papp at 20 h, 10 μmol in data set [1] fell in the range of 1 to 5 ×10⁻⁶ cm/s. In addition, the “RLM Clint” value in data set [3] is listed as “A (Clint < 20 μl/(min · mg of protein))”.

For `O=c1c2[nH]cc(-c3nc(N[C@H]4CCCNC4)ncc3C(F)(F)F)c2ccn1Cc1ccccc1` [CDK7_961, 6-benzyl-3-(2-{[(3S)-piperidin-3-yl]amino}-5-(trifluoromethyl)py-rimidin-4-yl)-1H,6H,7H-pyrrolo[2,3-c]pyridin-7-one], in data set [1], the Papp at 20 h, 10 μmol was in the range of 1 to 5 ×10⁻⁶ cm/s.

For the molecule `O=C1c2[nH]cc(-c3nc(NC4CCCNC4)ncc3C(F)(F)F)c2CCCN1c1nccs1` (stereo not drawn) [CDK7_1172], the Papp at 20 h, 10 μmol in data set [1] was in the range of 1 to 5 ×10⁻⁶ cm/s.

Consider `Cn1cc(-n2ccc3c(-c4nc(N[C@H]5CCCNC5)ncc4C(F)(F)F)c[nH]c3c2=O)cn1` [CDK7_959, 6-(1-methyl-1H-pyrazol-4-yl)-3-(2-{[(3S)-piperidin-3-yl]amino}-5-(trifluoromethyl)py-rimidin-4-yl)-1H,6H,7H-pyrrolo[2,3-c]pyridin-7-one], for which the Papp at 20 h, 10 μmol in data set [1] was < 1 ×10⁻⁶ cm/s.

Consider `O=C1c2[nH]cc(-c3nc(N[C@H]4CCC5(CC5)NC4)ncc3C(F)(F)F)c2CCCN1C1CC1` [CDK7_1276, 3-(2-{[(6S)-4-azaspiro[2.5]octan-6-yl]amino}-5-(trifluoromethyl)py-rimidin-4-yl)-7-cyclopropyl-1H,4H,5H,6H,7H, 8H-pyrrolo[2,3-c]azepin-8-one], for which, in data set [1], the Papp at 20 h, 10 μmol was in the range of 5 to 10 ×10⁻⁶ cm/s. For the same molecule, the IC50 at CDK13/Cyclin K (setting [4]) is 152 nM; on CDK13/Cyclin K (setting [5]), 50 to 200 nM. Further, the “MLM Clint” value in data set [2] was “B (50 μl/(min · mg of protein) > Clint > 20 μl/(min · mg of protein))”. In data set [3], the “RLM Clint” value is recorded as “B (50 μl/(min · mg of protein) > Clint > 20 μl/(min · mg of protein))”.

Turning to `Cn1cc(N2CCCc3c(-c4nc(N[C@H]5CCC(C)(C)NC5)ncc4C(F)(F)F)c[nH]c3C2=O)cn1` [CDK7_1122, 3-(2-{[(3S)-6,6-dimethylpiperidin-3-yl]amino}-5-(trifluoromethyl)py-rimidin-4-yl)-7-(1-methyl-1H-pyrazol-4-yl)-1H,4H,5H,6H,7H, 8H-pyrrolo[2,3-c]azepin-8-one], the Papp at 20 h, 10 μmol in data set [1] was 1 to 5 ×10⁻⁶ cm/s.

Take `CC1(C)CC[C@H](Nc2ncc(C(F)(F)F)c(-c3c[nH]c4c3CCCN(CC3CC3)C4=O)n2)CN1` [CDK7_1227, 7-(cyclopropylmeth-yl)-3-(2-{[(3S)-6,6-dimethylpiperidin-3-yl]amino}-5-(trifluoromethyl)py-rimidin-4-yl)-1H,4H,5H,6H,7H, 8H-pyrrolo[2,3-c]azepin-8-one]: the Papp at 20 h, 10 μmol in data set [1] fell in the range of 5 to 10 ×10⁻⁶ cm/s. In addition, in data set [3], the “RLM Clint” value was “A (Clint < 20 μl/(min · mg of protein))”.

In the case of `CC(C)N1CCCc2c(-c3nc(N[C@H]4CCC(C)(C)NC4)ncc3C(F)(F)F)c[nH]c2C1=O` [CDK7_1229, 3-(2-{[(3S)-6,6-dimethylpiperidin-3-yl]amino}-5-(trifluoromethyl)py-rimidin-4-yl)-7-(propan-2-yl)-1H,4H,5H,6H,7H, 8H-pyrrolo[2,3-c]azepin-8-one], in data set [1], the Papp at 20 h, 10 μmol lay in the range of 5 to 10 ×10⁻⁶ cm/s. Also, the IC50 was 242 nM on CDK13/Cyclin K (setting [4]) and > 200 nM at CDK13/Cyclin K (setting [5]). The “MLM Clint” value in data set [2] was “A (Clint < 20 μl/(min · mg of protein))”. In addition, the “RLM Clint” value in data set [3] is on record as “A (Clint < 20 μl/(min · mg of protein))”.

Take `Cn1cc(-n2ccc3c(-c4nc(N[C@H]5CCC(C)(C)NC5)ncc4C(F)(F)F)c[nH]c3c2=O)cn1` [CDK7_1123, 3-(2-{[(3S)-6,6-dimethylpiperidin-3-yl]amino}-5-(trifluoromethyl)py-rimidin-4-yl)-6-(1-methyl-1H-pyrazol-4-yl)-1H,6H,7H-pyrrolo[2,3-c]pyridin-7-one]: the Papp at 20 h, 10 μmol in data set [1] is < 1 ×10⁻⁶ cm/s. For the same molecule, the IC50 on CDK13/Cyclin K (setting [4]) was 25 nM; at CDK13/Cyclin K (setting [5]) it was 5 to 50 nM.

On to `CCN1CCCc2c(-c3nc(N[C@H]4CCC(C)(C)NC4)ncc3C(F)(F)F)c[nH]c2C1=O` [CDK7_1259, 3-(2-{[(3S)-6,6-dimethylpiperidin-3-yl]amino}-5-(trifluoromethyl)py-rimidin-4-yl)-7-ethyl-1H,4H,5H,6H,7H, 8H-pyrrolo[2,3-c]azepin-8-one], for which, in data set [1], the Papp at 20 h, 10 μmol fell in the range of 1 to 5 ×10⁻⁶ cm/s. Besides, the “RLM Clint” value in data set [3] is “A (Clint < 20 μl/(min · mg of protein))”.

In the case of `CC(C)N1CCCc2c(-c3nc(N[C@H]4CCC5(CC5)NC4)ncc3C(F)(F)F)c[nH]c2C1=O` [CDK7_1277, 3-(2-{[(6S)-4-azaspiro[2.5]octan-6-yl]amino}-5-(trifluoromethyl)py-rimidin-4-yl)-7-(propan-2-yl)-1H,4H,5H,6H,7H, 8H-pyrrolo[2,3-c]azepin-8-one], the Papp at 20 h, 10 μmol in data set [1] fell in the range of 5 to 10 ×10⁻⁶ cm/s. The IC50 is 425 nM at CDK13/Cyclin K (setting [4]) and > 200 nM on CDK13/Cyclin K (setting [5]). Further, the “MLM Clint” value in data set [2] is on record as “B (50 μl/(min · mg of protein) > Clint > 20 μl/(min · mg of protein))”. Further, in data set [3], the “RLM Clint” value was “B (50 μl/(min · mg of protein) > Clint > 20 μl/(min · mg of protein))”.

Consider `CC1CCc2c(-c3nc(N[C@H]4CCCNC4)ncc3C(F)(F)F)c[nH]c2C(=O)N1C` (stereo partly drawn) [CDK7_1254, 6,7-dimethyl-3-(2-{[(3S)-piperidin-3-yl]amino}-5-(trifluoromethyl)py-rimidin-4-yl)-1H,4H,5H,6H,7H, 8H-pyrrolo[2,3-c]azepin-8-one], for which the Papp at 20 h, 10 μmol in data set [1] fell in the range of 1 to 5 ×10⁻⁶ cm/s.

On to `O=C1c2[nH]cc(-c3nc(N[C@H]4CCCNC4)ncc3C(F)(F)F)c2CCCN1c1ccccn1` [CDK7_1176, 3-(2-{[(3S)-piperidin-3-yl]amino}-5-(trifluoromethyl)py-rimidin-4-yl)-7-(pyridin-2-yl)-1H,4H,5H,6H,7H, 8H-pyrrolo[2,3-c]azepin-8-one], for which, in data set [1], the Papp at 20 h, 10 μmol was in the range of 1 to 5 ×10⁻⁶ cm/s.
